PMC6886403, “Structure-Based and Molecular Modeling Studies for the Discovery of Cyclic Imides as Reversible Cruzain Inhibitors With Potent Anti-Trypanosoma cruzi Activity” (Frontiers in Chemistry, 2019)

Legend:
[1] = molecular target: T1, cruzain (Trypanosoma cruzi, UniProt P25779); test: Cruzain inhibition assay (cleavage of fluorogenic substrate Z-Phe-Arg-AMC); type: biochemical; settings: for inhibition at 100 µM: at 100 μM inhibitor, mean of three measurements, read-out: Percent inhibition against cruzain; for IC50: mean ± SD of three individual experiments, at least six inhibitor concentrations in triplicate, 1.5 nM cruzain, 5.0 μM Z-Phe-Arg-AMC, pH 5.5; for decrease in potency against cruzain relative to 3a: less active than 3a
T1 construct: inferred from Ni-NTA purification of the pro-enzyme; made in house; host or cells: Escherichia coli (M15)
T1 sequence (P25779 123-337 limits assumed): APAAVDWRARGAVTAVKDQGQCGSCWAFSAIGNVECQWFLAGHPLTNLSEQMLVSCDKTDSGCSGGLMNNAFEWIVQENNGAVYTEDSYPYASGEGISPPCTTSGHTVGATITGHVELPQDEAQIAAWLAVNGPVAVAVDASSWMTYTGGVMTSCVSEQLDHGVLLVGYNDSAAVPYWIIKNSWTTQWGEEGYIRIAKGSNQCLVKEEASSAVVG
Experimental: The catalytic activity of cruzain was monitored by cleavage of the fluorogenic substrate Z-Phe-Arg-aminomethyl coumarin (Z-Phe-Arg-AMC) as previously described (Ferreira et al., [2014]). The enzyme kinetics assays were performed in 0.1 M sodium acetate buffer (pH 5.5) with 5 mM dithiothreitol (DTT) and 0.01% Triton X-100. […] The enzyme reaction was monitored for 5 min at 30°C in 96-well black flat bottom plates, and the activity was calculated based on the initial rates compared with a control (DMSO). Wavelengths of 355 nm for excitation and 460 nm for emission were used. IC50 values were independently determined by determining rate measurements for at least six inhibitor concentrations, each evaluated in triplicate. To determine the mechanism of inhibition, eight substrate concentrations and four inhibitor concentrations were used, each in triplicate. The mechanism of inhibition was determined by Lineweaver-Burk plots. SigmaPlot 10.0 (Systat Software Inc., Erkrath, Germany) was used to determine the IC50 values.

[2] = test system: T. cruzi intracellular amastigotes; test: T. cruzi intracellular amastigote assay (Tulahuen lacZ strain, CPRG readout); type: cell-based, Trypanosoma cruzi; settings: intracellular amastigotes; for IC50: Trypanosoma cruzi, Tulahuen strain in HFF-1 fibroblasts, 120 h, mean ± SD of two experiments, read-out: IC50 T. cruzi
Experimental: In vitro assays against T. cruzi were performed as described previously (Ferreira et al., [2014]). The T. cruzi Tulahuen strain, which expresses the E. coli β-galactosidase gene lacZ (Buckner et al., [1996]), was provided by Frederick S. Buckner (University of Washington, Seattle, WA). Stock solutions of the synthesized compounds were prepared in 100% DMSO. Epimastigotes were grown in liver infusion tryptone (LIT) supplemented with 10% fetal calf serum (FCS), penicillin and streptomycin (28°C). Metacyclogenesis from epimastigotes to trypomastigotes was induced by incubation of the epimastigotes in Grace's insect medium (Sigma-Aldrich, St. Louis, MO) supplemented with 10% FCS (28°C). HFF-1 human fibroblasts were seeded at 2 × 10^3/well (80 μL) in 96-well tissue culture plates in RPMI 1640 without phenol red supplemented with 10% FCS and incubated overnight (37°C, 5% CO2). Next, trypomastigotes were added at 1.0 × 10^4/well (20 μL), and the plates were incubated (37°C, 5% CO2). After 24 h, 3-fold serial dilutions (50 μL) of the synthesized compounds were added at concentrations ranging from 0.1 to 100 μM, and the plates were incubated (37°C, 5% CO2). Each compound concentration was evaluated in triplicate. All plates included BZ (Sigma-Aldrich) as a positive control and untreated wells (100% growth) as a negative control. After 120 h, 50 μL of chlorophenol red β-D-galactopyranoside (CPRG, Sigma-Aldrich) and IGEPAL CA-630 (Sigma-Aldrich) (0.1%) was added to each well. The absorbance was measured at 570 nm in an automated microplate reader, and the data were transferred to SigmaPlot 10.0 (Systat Software Inc.) for IC50 value calculation.

inhibition at 100 µM [1]	SMILES	IC50 [1]	IC50 [2]	other results
86%	COc1ccc(NC(=O)COC(=O)[C@H](CC(C)C)N2C(=O)C3CC=CCC3C2=O)cc1 (stereo partly drawn) [3b, 2-((4-methoxyphenyl)amino)-2-oxoethyl (2S)-2-(1,3-dioxo-1,3,3a,4,7,7a-hexahydro-2H-isoindol-2-yl)-4-methylpentanoate]	13.9 µM	–	–
67%	CC(C)C[C@@H](C(=O)OCC(=O)Nc1cccc(Cl)c1)N1C(=O)C2CC=CCC2C1=O (stereo partly drawn) [3c, 2-((3-chlorophenyl)amino)-2-oxoethyl (2S)-2-(1,3-dioxo-1,3,3a,4,7,7a-hexahydro-2H-isoindol-2-yl)-4-methylpentanoate]	40.1 µM	–	–
53%	CC(C)C[C@@H](C(=O)OCC(=O)Nc1ccc(Br)cc1)N1C(=O)C2CC=CCC2C1=O (stereo partly drawn) [3f, 2-((4-bromophenyl)amino)-2-oxoethyl (2S)-2-(1,3-dioxo-1,3,3a,4,7,7a-hexahydro-2H-isoindol-2-yl)-4-methylpentanoate]	–	–	–
56%	CC(C)C[C@@H](C(=O)OCC(=O)Nc1ccc(Cl)cc1)N1C(=O)C2CC=CCC2C1=O (stereo partly drawn) [3g, 2-((4-chlorophenyl)amino)-2-oxoethyl (2S)-2-(1,3-dioxo-1,3,3a,4,7,7a-hexahydro-2H-isoindol-2-yl)-4-methylpentanoate]	–	–	–
6%	CC(C)C[C@@H](C(=O)OCC(=O)Nc1ccc(O)cc1)N1C(=O)C2CC=CCC2C1=O (stereo partly drawn) [3h, 2-((4-hydroxyphenyl)amino)-2-oxoethyl (2S)-2-(1,3-dioxo-1,3,3a,4,7,7a-hexahydro-2H-isoindol-2-yl)-4-methylpentanoate]	–	–	–
56%	CC(C)C[C@@H](C(=O)OCC(=O)Nc1ccc(F)c([N+](=O)[O-])c1)N1C(=O)C2CC=CCC2C1=O (stereo partly drawn) [3j, 2-((4-fluoro-3-nitrophenyl)amino)-2-oxoethyl (2S)-2-(1,3-dioxo-1,3,3a,4,7,7a-hexahydro-2H-isoindol-2-yl)-4-methylpentanoate]	–	–	–
67%	CC(C)CC(C(=O)OCC(=O)Nc1ccc([N+](=O)[O-])cc1)N1C(=O)C2CC=CCC2C1=O (stereo not drawn) [3l]	–	–	–
53%	COc1ccc(NC(=O)COC(=O)C(CC(C)C)N2C(=O)C3CC=CCC3C2=O)c([N+](=O)[O-])c1 (stereo not drawn) [3m]	–	–	–
39%	COc1ccc(NC(=O)COC(=O)[C@H](CC(C)C)N2C(=O)c3ccccc3C2=O)cc1Cl [10a, 2-((3-chloro-4-methoxyphenyl)amino)-2-oxoethyl (S)-2-(1,3-dioxoisoindolin-2-yl)-4-methylpentanoate]	–	–	–
0%	COc1ccc(NC(=O)COC(=O)CN2C(=O)C3CC=CCC3C2=O)cc1Cl (stereo not drawn) [10g, 2-((3-chloro-4-methoxyphenyl)amino)-2-oxoethyl 2-(1,3-dioxo-1,3,3a,4,7,7a-hexahydro-2H-isoindol-2-yl)acetate]	–	–	activity against cruzain (in words) [1]: inactive
–	COc1ccc(NC(=O)COC(=O)C(Cc2ccccc2)N2C(=O)C3CC=CCC3C2=O)cc1Cl (stereo not drawn) [10hrac, 2-((3-chloro-4-methoxyphenyl)amino)-2-oxoethyl 2-(1,3-dioxo-1,3,3a,4,7,7a-hexahydro-2H-isoindol-2-yl)-3-phenylpropanoate]	1.16 µM	–	–
58%	COc1ccc(NC(=O)COC(=O)[C@@H](Cc2ccc3ccccc3c2)N2C(=O)C3CC=CCC3C2=O)cc1Cl (stereo partly drawn) [10i, 2-((3-chloro-4-methoxyphenyl)amino)-2-oxoethyl (2R)-2-(1,3-dioxo-1,3,3a,4,7,7a-hexahydro-2H-isoindol-2-yl)-3-(naphthalen-2-yl)propanoate]	–	–	–
38%	COc1ccc(NC(=O)CNC(=O)C(CC(C)C)N2C(=O)C3CC=CCC3C2=O)cc1Cl (stereo not drawn) [compound 5, N-(2-((3-chloro-4-methoxyphenyl)amino)-2-oxoethyl)-2-(1,3-dioxo-1,3,3a,4,7,7a-hexahydro-2H-isoindol-2-yl)-4-methylpentanamide]	–	–	–

SMILES	inhibition at 100 µM [1]	IC50 [1]	IC50 [2]	other results
COc1ccc(NC(=O)COC(=O)[C@H](CC(C)C)N2C(=O)C3CC=CCC3C2=O)cc1Cl (stereo partly drawn) [3a, 2-((3-chloro-4-methoxyphenyl)amino)-2-oxoethyl (2S)-2-(1,3-dioxo-1,3,3a,4,7,7a-hexahydro-2H-isoindol-2-yl)-4-methylpentanoate]	88%	2.2 ± 0.4 µM	> 100 µM	activity against T. cruzi (in words) [2]: not active
CC(C)C[C@@H](C(=O)OCC(=O)Nc1ccccc1)N1C(=O)C2CC=CCC2C1=O (stereo partly drawn) [3d, 2-oxo-2-(phenylamino)ethyl (2S)-2-(1,3-dioxo-1,3,3a,4,7,7a-hexahydro-2H-isoindol-2-yl)-4-methylpentanoate]	76%	16.7 ± 1.3 µM	> 100 µM	decrease in potency against cruzain relative to 3a [1]: 8 fold
CC(C)C[C@@H](C(=O)OCC(=O)Nc1ccc(F)cc1)N1C(=O)C2CC=CCC2C1=O (stereo partly drawn) [3e, 2-((4-fluorophenyl)amino)-2-oxoethyl (2S)-2-(1,3-dioxo-1,3,3a,4,7,7a-hexahydro-2H-isoindol-2-yl)-4-methylpentanoate]	74%	20.5 ± 1.3 µM	> 100 µM	–
COc1ccc(NC(=O)COC(=O)[C@H](CC(C)C)N2C(=O)C3CCCCC3C2=O)cc1Cl (stereo partly drawn) [10b, 2-((3-chloro-4-methoxyphenyl)amino)-2-oxoethyl (2S)-2-(1,3-dioxooctahydro-2H-isoindol-2-yl)-4-methylpentanoate]	75%	4.2 ± 1.5 µM	> 100 µM	decrease in potency against cruzain relative to 3a [1]: 2 fold
COc1ccc(NC(=O)COC(=O)[C@H](Cc2ccccc2)N2C(=O)C3CC=CCC3C2=O)cc1Cl (stereo partly drawn) [10h, 2-((3-chloro-4-methoxyphenyl)amino)-2-oxoethyl (2S)-2-(1,3-dioxo-1,3,3a,4,7,7a-hexahydro-2H-isoindol-2-yl)-3-phenylpropanoate]	96%	1.4 ± 0.8 µM	> 100 µM	activity against cruzain (in words) [1]: active; mechanism of inhibition ([1]; Lineweaver-Burk plots, eight substrate and four inhibitor concentrations): competitive; increase in potency against cruzain relative to 3a ([1]; more active than 3a): 2 fold; activity against T. cruzi (in words) [2]: inactive
COc1ccc(NC(=O)COC(=O)[C@H](CC(C)C)N2CCCC2)cc1Cl [10k, 2-((3-chloro-4-methoxyphenyl)amino)-2-oxoethyl (S)-4-methyl-2-(pyrrolidin-1-yl)pentanoate]	6%	–	> 100 µM	activity against cruzain (in words) [1]: inactive; activity against T. cruzi (in words) [2]: inactive
